Test results published in patent US10987360B2, “Hepatitis B core protein modulators” (Assembly Biosciences, Inc., priority 2016, dated 2021).
Read-outs that look alike come from different tables or passages of the source.

How the values were obtained:
[1] = tested on: HBV viral load in AD38 cells; assay: Viral load production in AD38 cells, quantitative PCR of the core sequence in supernatant; format: cell-based; details: Hepatitis B virus, 144 h, 6 days incubation
Protocol: (§1) Assay Measuring Activity of Compounds on Viral Production in and on Viability of AD38 Cells
(§2) AD38 cells grown in a 175 cm flask with “Growth Medium” (DMEM/F12 (1:1) (cat #SH30023.01, Hyclone, 1×Pen/step (cat #: 30-002-CL, Mediatech, Inc), 10% FBS (cat #: 101, Tissue Culture Biologics), 250 μg/mL G418 (cat #: 30-234-CR, Mediatech, Inc), 1 μg/mL Tetracycline (cat #: T3325, Teknova)) were detached with 0.25% trypsin. Tetracycline-free “treatment medium” (15 mL DMEM/F12 (1:1) (cat #SH30023.01, Hyclone, 1×Pen/step (cat #: 30-002-CL, Mediatech, Inc), with 2% FBS, Tet-system approved (cat #: 631106, Clontech) were then added to mix and spun at 1300 rpm for 5 min. Pelleted cells were then re-suspended/washed with 50 mL of 1×PBS 2 times and 10 mL Treatment Medium one time. AD38 cells were then re-suspended with 10 mL of Treatment Medium and counted. Wells of a collagen coated 96-well NUNC microtiter plate were seeded at 50,000/well in 180 μL of Treatment Medium, and 20 μL of in treatment media with either 10% DMSO (Control) or a 10× solution of compound in 10% DMSO was added. Plates were incubated for 6 days at 37° C.
Viral load production was assayed by quantitative PCR of the core sequence. Briefly, 5 μL of clarified supernatant was added to a PCR reaction mixture that contained forward primers HBV-f 5′-CTGTGCCTTGGGTGGCTTT-3′, Reverse primers HBV-r 5′-[…]-3′ and Fluorescent TaqMan™ Probes HBV-probe 5′-FAM/AGCTCCAAA/ZEN/[…]/3IABkFQ-3′ in Quanta Biosciences PerfeCTa® qPCR Toughmix®, and was subsequently on an Applied Biosystems VIIA7 in a final volume of 20 μL. The PCR mixture was incubated at 45° C. for 5 minutes, then 95° C. for 10 min, followed by 40 cycles of 10 seconds at 95° C. and 20 seconds at 60° C. Viral load was quantitated against known standards by using ViiA™ 7 Software. Viral load in the supernatant from wells with treated cells were compared against viral load in supernatant from DMSO control wells (≥3 per plate).

[2] = tested on: AD38 cells; assay: Viability of AD38 cells, Promega CellTiter-Glo; format: cell-based; details: 6 days incubation, controls being 100%; for AD38 Viability Normalized Result (CPAM/DMSO %) at 10 μM: Table 6, compounds of Group 4
Protocol: as §1, §2
At the end of compound treatment period cell viability was assessed using a Promega CellTiter-Glo protocol. All supernatant was removed the previously treated 96-well microtiter plate, and 50 μL Tetracycline-free treatment medium (DMEM/F12 (1:1), 1×Pen/step (cat #: 30-002-CL, Mediatech, Inc), with 2% FBS, Tet-system approved (cat #: 631106, Clontech), and 1% DMSO was added back to each well. Another 50 μL of CellTiter-Glo reagent solution (Promega, G7573) was then added at room temperature and the contents mixed for 2 minutes on an orbital shaker to induce cell lysis. This was followed by incubation at room temperature for 10 minutes to stabilize the luminescent signal. The luminescence was recorded for 0.2 seconds per well on a Tecan multimode platereader (Infinite M1000 pro). The luminescent signal from each well was normalized against that of untreated (DMSO) control wells. All results in Tables 3-6 were reported with percent viability (with controls being 100%).

[3] = Table 4, compounds of Group 2, read-out: AD38 Viral Load (%) (VL with cmpd/VL in DMSO control) at 10 μM
[4] = Table 3, compounds of Group 1, read-out: AD38 Viral Load (%) (VL with cmpd/VL in DMSO control) at 10 μM
[5] = Table 5, compounds of Group 3, read-out: AD38 Viral Load (%) (VL with cmpd/VL in DMSO control) at 10 μM
[6] = Table 6, compounds of Group 4, read-out: AD38 Viral Load (CpAM/DMSO %) at 10 μM

Compound | activity at 10 µM [1, 3] [%] | AD38 Viability Normalized Result (cmpd/DMSO %) at 10 μM ([2]; Table 4, compounds of Group 2) [%] | activity at 10 µM [1, 4] [%] | AD38 Viability Normalized Result (cmpd/DMSO %) at 10 μM ([2]; Table 3, compounds of Group 1) [%] | further results
N#Cc1ccc(-c2ncc(CNC(=O)c3ccc4c(c3)NC(=O)[C@H]3CCCCN3S4(=O)=O)s2)c(F)c1 (single isomer, unassigned) [C25-02-Isomer II] | 0.6 | 111 |  |  | 
N#Cc1ccc(-c2ncc(CNC(=O)c3ccc4c(c3)NC(=O)[C@@H]3CCCCN3S4(=O)=O)s2)c(F)c1 (single isomer, unassigned) [C25-02-Isomer I] | 3 | 108 |  |  | 
O=C(NCc1cnc(-n2cccn2)s1)c1ccc2c(c1)NC(=O)[C@H]1CCCCN1S2(=O)=O (single isomer, unassigned) [C25-04-Isomer II] | 1.7 | 99 |  |  | 
O=C(NCc1cnc(-n2cccn2)s1)c1ccc2c(c1)NC(=O)[C@@H]1CCCCN1S2(=O)=O (single isomer, unassigned) [C25-04-Isomer I] | 8.3 | 104 |  |  | 
Cc1ncc(CNC(=O)c2ccc3c(c2)NC(=O)c2ccncc2S3)s1 [Compound 576] | 11.7 | 98 |  |  | 
O=C(NCc1cnc(-c2ccccc2)s1)c1ccc2c(c1)NC(=O)c1ccncc1S2 [Compound 578] | 3 | 100 |  |  | 
O=C(NCc1cnc(-c2ccc(O)cc2)s1)c1ccc2c(c1)NC(=O)c1ccncc1S2 [Compound 762] | 45.6 | 102 |  |  | 
O=C1CCC(c2ncc(CNC(=O)c3ccc4c(c3)NC(=O)c3ccccc3S4(=O)=O)s2)CC1 [Compound 818, 11-oxo-N-((2-(4-oxocyclohexyl)thiazol-5-yl)methyl)-10,11-dihydrodibenzo[b,f][1,4]thiazepine-8-carboxamide 5,5-dioxide] |  |  | 1.3 | 84 | 
Cl.NC1CCC(Cc2ncc(CNC(=O)c3ccc4c(c3)NC(=O)c3ccccc3S4(=O)=O)s2)CC1 (stereo not shown) [Compound 884, N-((2-((4-aminocyclohexyl)methyl)thiazol-5-yl)methyl)-11-oxo-10,11-dihydrodibenzo[b,f][1,4]thiazepine-8-carboxamide 5,5-dioxide hydrochloride] |  |  | 15.1 | 94 | 
O=C(NCc1cnc(C2CCC(O)CC2)s1)c1ccc2c(c1)NC(=O)c1ccccc1S2(=O)=O (stereo not shown) [Compound 924, N-((2-(4-hydroxycyclohexyl)thiazol-5-yl)methyl)-11-oxo-10,11-dihydrodibenzo[b,f][1,4]thiazepine-8-carboxamide 5,5-dioxide] |  |  | 0.7 | 95 | 
CC(C)(C)OC(=O)N1CCC(c2ncc(CNC(=O)c3ccc4c(c3)NC(=O)c3ccccc3S4(=O)=O)s2)CC1 [Compound 926-A] |  |  | 3.6 | 98 | 
O=C(NCc1cnc(CN2CCOCC2)s1)c1ccc2c(c1)NC(=O)c1ccccc1S2(=O)=O [Compound 927] |  |  | 4.7 | 92 | 
CC1(C)CCC(c2ncc(CNC(=O)c3ccc4c(c3)NC(=O)c3ccccc3S4(=O)=O)s2)C1 (stereo not shown) [Compound 979] |  |  | 0.5 | 59 | 
O=C1CCC(c2ncc(CNC(=O)c3ccc4c(c3)NC(=O)c3ccccc3S4(=O)=O)s2)C1 (stereo not shown) [Compound 980-A, 11-oxo-N-((2-(3-oxocyclopentyl)thiazol-5-yl)methyl)-10,11-dihydrodibenzo[b,f][1,4]thiazepine-8-carboxamide 5,5-dioxide] |  |  | 1.2 | 97 | 
COC1(OC)CCC(c2ncc(CNC(=O)c3ccc4c(c3)NC(=O)c3ccccc3S4(=O)=O)s2)C1 (stereo not shown) [Compound 980-B, N-((2-(3,3-dimethoxycyclopentyl)thiazol-5-yl)methyl)-11-oxo-10,11-dihydrodibenzo[b,f][1,4]thiazepine-8-carboxamide 5,5-dioxide] |  |  | 0.9 | 93 | 
O=C(NCc1cnc(C(F)(F)F)s1)c1ccc2c(c1)NC(=O)c1ccncc1S2(=O)=O [Compound 1020] | 6.1 | 97 |  |  | 
N#Cc1ccc(-c2ncc(CNC(=O)c3ccc4c(c3)NC(=O)c3ccncc3S4(=O)=O)s2)c(F)c1 [Compound 1021] | 0.3 | 96 |  |  | 
C[C@H](N)C(=O)N1CCC(c2ncc(CNC(=O)c3ccc4c(c3)NC(=O)c3ccccc3S4(=O)=O)s2)CC1.Cl [Compound 1034, N-((2-(1-(L-alanyl)piperidin-4-yl)thiazol-5-yl)methyl)-11-oxo-10,11-dihydrodibenzo[b,f][1,4]thiazepine-8-carboxamide 5,5-dioxide hydrochloride] |  |  | 67.7 | 106 | 
Cc1c(C(=O)NCc2cnn(-c3nccs3)c2)ccc2c1NC(=O)c1ccccc1S2(=O)=O [Compound 1153, 9-methyl-11-oxo-N-((1-(thiazol-2-yl)-1H-pyrazol-4-yl)methyl)-10,11-dihydrodibenzo[b,f][1,4]thiazepine-8-carboxamide 5,5-dioxide] |  |  |  |  | activity at 10 µM [1, 5]: 2.1%; AD38 Viability Normalized Result (cmpd/DMSO %) at 10 μM ([2]; Table 5, compounds of Group 3): 92%
O=C(NCc1cnn(-c2nccs2)c1)c1ccc2c(c1)NC(=O)c1ccccc1S2(=O)=O [Compound 1155, 11-oxo-N-((1-(thiazol-2-yl)-1H-pyrazol-4-yl)methyl)-10,11-dihydrodibenzo[b, f][1,4]thiazepine-8-carboxamide 5,5-dioxide] |  |  |  |  | activity at 10 µM [1, 5]: 0.6%; AD38 Viability Normalized Result (cmpd/DMSO %) at 10 μM ([2]; Table 5, compounds of Group 3): 104%
CC1=C(C)C(=O)Nc2cc(C(=O)NCc3cnc(C(F)(F)F)s3)ccc2O1 [Compound C1-01] | 27.9 | 106 |  |  | 
CC1=C(C)C(=O)Nc2cc(C(=O)NCc3cnc(-c4ccc(C#N)cc4F)s3)ccc2O1 [Compound C1-02] | 20.4 | 103 |  |  | 
Cc1cc(=O)[nH]c2cc(C(=O)NCc3cnc(C(F)(F)F)s3)ccc12 [Compound C2-01, 4-Methyl-2-oxo-N-((2-(trifluoromethyl)thiazol-5-yl)methyl)-1,2-dihydroquinoline-7-carboxamide] |  |  |  |  | activity at 10 µM [1, 6]: 69.7%; AD38 Viability Normalized Result (CPAM/DMSO %) at 10 μM [2]: 113%
CC(C)c1cc(=O)[nH]c2cc(C(=O)NCc3cnc(C(F)(F)F)s3)ccc12 [Compound C3-01, 4-Isopropyl-2-oxo-N-((2-(trifluoromethyl)thiazol-5-yl)methyl)-1,2-dihydroquinoline-7-carboxamide] |  |  |  |  | activity at 10 µM [1, 6]: 44.6%; AD38 Viability Normalized Result (CPAM/DMSO %) at 10 μM [2]: 105%
N#Cc1ccc(-c2ncc(CNC(=O)c3ccc4c(c3)NC(=O)C43CCCCC3)s2)c(F)c1 [Compound C6-02, N-((2-(4-Cyano-2-fluorophenyl)thiazol-5-yl)methyl)-2′-oxospiro[cyclohexane-1,3′-indoline]-6′-carboxamide] |  |  |  |  | activity at 10 µM [1, 6]: 41.2%; AD38 Viability Normalized Result (CPAM/DMSO %) at 10 μM [2]: 91%
CC1=C(C)S(=O)(=O)c2ccc(C(=O)NCc3cnc(C(F)(F)F)s3)cc2NC1=O [Compound C10-01] | 12.2 | 101 |  |  | 
